Each structure is given as a SMILES string.

The nature of the first data set: The drug is tested on Providencia stuartii strain: ATCC25827 for biotransformation. The drug concentrations were measured before and after a 12-h incubation by liquid-chromatography-coupled mass spectrometry (LC–MS). The note with it: 2 µM.
For the molecule `CCOC(=O)[C@H](CCc1ccccc1)N[C@@H](C)C(=O)N1CCC[C@H]1C(=O)O.O=C(O)/C=C\C(=O)O` [ENALAPRIL MALEATE], the “Bacterial Biotransformation” value was “Compound NOT metabolized”.
Take `Fc1ccc([C@@H]2CCNC[C@H]2COc2ccc3c(c2)OCO3)cc1` [PAROXETINE]: the “Bacterial Biotransformation” value was “Compound NOT metabolized”.

A further data set can be described thus: The drug is tested on Bifidobacterium longum subsp. Infantis strain: CCUG52486 for biotransformation. The drug concentrations were measured before and after a 12-h incubation by liquid-chromatography-coupled mass spectrometry (LC–MS). The note with it: 2 µM.
Turning to `CCOC(=O)[C@H](CCc1ccccc1)N[C@@H](C)C(=O)N1CCC[C@H]1C(=O)O.O=C(O)/C=C\C(=O)O` [ENALAPRIL MALEATE], the “Bacterial Biotransformation” value is “Compound NOT metabolized”.
Same read-out and setting: the result for `Fc1ccc([C@@H]2CCNC[C@H]2COc2ccc3c(c2)OCO3)cc1` [PAROXETINE] reads “Compound NOT metabolized”.

The nature of a further data set: The drug is tested on Anaerotruncus colihominis strain: DSM17241 for biotransformation. The drug concentrations were measured before and after a 12-h incubation by liquid-chromatography-coupled mass spectrometry (LC–MS). The note with it: 2 µM.
In the case of `CCOC(=O)[C@H](CCc1ccccc1)N[C@@H](C)C(=O)N1CCC[C@H]1C(=O)O.O=C(O)/C=C\C(=O)O` [ENALAPRIL MALEATE], the “Bacterial Biotransformation” value is recorded as “Compound NOT metabolized”.
Take `Fc1ccc([C@@H]2CCNC[C@H]2COc2ccc3c(c2)OCO3)cc1` [PAROXETINE]: the “Bacterial Biotransformation” value is listed as “Compound metabolized”.

The nature of another data set: The drug is tested on Bacteroides xylanisolvens strain: DSM18836 for biotransformation. The drug concentrations were measured before and after a 12-h incubation by liquid-chromatography-coupled mass spectrometry (LC–MS). The note with it: 2 µM.
For `CCOC(=O)[C@H](CCc1ccccc1)N[C@@H](C)C(=O)N1CCC[C@H]1C(=O)O.O=C(O)/C=C\C(=O)O` [ENALAPRIL MALEATE], the “Bacterial Biotransformation” value was “Compound metabolized”.
`Fc1ccc([C@@H]2CCNC[C@H]2COc2ccc3c(c2)OCO3)cc1` [PAROXETINE]: the “Bacterial Biotransformation” value was “Compound NOT metabolized”.

The next data set is described as follows: The drug is tested on Ruminococcus gnavus strain: ATCC29149 for biotransformation. The drug concentrations were measured before and after a 12-h incubation by liquid-chromatography-coupled mass spectrometry (LC–MS). The note with it: mediterraneibacter gnavus, 2 µM.
For the molecule `CCOC(=O)[C@H](CCc1ccccc1)N[C@@H](C)C(=O)N1CCC[C@H]1C(=O)O.O=C(O)/C=C\C(=O)O` [ENALAPRIL MALEATE], the “Bacterial Biotransformation” value was “Compound NOT metabolized”.
As for `Fc1ccc([C@@H]2CCNC[C@H]2COc2ccc3c(c2)OCO3)cc1` [PAROXETINE], the “Bacterial Biotransformation” value is listed as “Compound NOT metabolized”.

The conditions of another data set: akkermansia muciniphila, 12 h, 2 µM.
Description: The drug is tested on Akkermansia muciniphila strain: ATCC BAA-835 for biotransformation. The drug concentrations were measured before and after a 12-h incubation by liquid-chromatography-coupled mass spectrometry (LC–MS)
For `CCOC(=O)[C@H](CCc1ccccc1)N[C@@H](C)C(=O)N1CCC[C@H]1C(=O)O.O=C(O)/C=C\C(=O)O` [ENALAPRIL MALEATE], the “Bacterial Biotransformation” value is listed as “Compound NOT metabolized”.
For `Fc1ccc([C@@H]2CCNC[C@H]2COc2ccc3c(c2)OCO3)cc1` [PAROXETINE], the “Bacterial Biotransformation” value is recorded as “Compound NOT metabolized”.

A further data set can be described thus: The drug is tested on Eubacterium hallii strain: DSM3353 for biotransformation. The drug concentrations were measured before and after a 12-h incubation by liquid-chromatography-coupled mass spectrometry (LC–MS). The note with it: anaerobutyricum hallii, 2 µM.
Take `CCOC(=O)[C@H](CCc1ccccc1)N[C@@H](C)C(=O)N1CCC[C@H]1C(=O)O.O=C(O)/C=C\C(=O)O` [ENALAPRIL MALEATE]: the “Bacterial Biotransformation” value was “Compound NOT metabolized”.
Same read-out and setting: the result for `Fc1ccc([C@@H]2CCNC[C@H]2COc2ccc3c(c2)OCO3)cc1` [PAROXETINE] reads “Compound NOT metabolized”.

Another data set can be described thus: The drug is tested on Bifidobacterium ruminantium strain: fecal isolate for biotransformation. The drug concentrations were measured before and after a 12-h incubation by liquid-chromatography-coupled mass spectrometry (LC–MS). The note with it: 2 µM.
In the case of `CCOC(=O)[C@H](CCc1ccccc1)N[C@@H](C)C(=O)N1CCC[C@H]1C(=O)O.O=C(O)/C=C\C(=O)O` [ENALAPRIL MALEATE], the “Bacterial Biotransformation” value was “Compound NOT metabolized”.
On the same count and under the same terms, the result for `Fc1ccc([C@@H]2CCNC[C@H]2COc2ccc3c(c2)OCO3)cc1` [PAROXETINE] reads “Compound NOT metabolized”.

Another data set in a line: The drug is tested on Clostridium ramosum strain: DSM1402 for biotransformation. The drug concentrations were measured before and after a 12-h incubation by liquid-chromatography-coupled mass spectrometry (LC–MS). The note with it: thomasclavelia ramosa, 2 µM.
Consider `CCOC(=O)[C@H](CCc1ccccc1)N[C@@H](C)C(=O)N1CCC[C@H]1C(=O)O.O=C(O)/C=C\C(=O)O` [ENALAPRIL MALEATE], for which the “Bacterial Biotransformation” value is “Compound NOT metabolized”.
With `Fc1ccc([C@@H]2CCNC[C@H]2COc2ccc3c(c2)OCO3)cc1` [PAROXETINE], the “Bacterial Biotransformation” value is “Compound NOT metabolized”.

The next data set in a line: The drug is tested on Bacteroides fragilis strain: HMW615 for biotransformation. The drug concentrations were measured before and after a 12-h incubation by liquid-chromatography-coupled mass spectrometry (LC–MS). The note with it: 2 µM.
As to `CCOC(=O)[C@H](CCc1ccccc1)N[C@@H](C)C(=O)N1CCC[C@H]1C(=O)O.O=C(O)/C=C\C(=O)O` [ENALAPRIL MALEATE], the “Bacterial Biotransformation” value is reported as “Compound NOT metabolized”.
Still for that read-out and setting: the result for `Fc1ccc([C@@H]2CCNC[C@H]2COc2ccc3c(c2)OCO3)cc1` [PAROXETINE] reads “Compound NOT metabolized”.

A short description of another data set: The drug is tested on Bacteroides finegoldii strain: DSM17565 for biotransformation. The drug concentrations were measured before and after a 12-h incubation by liquid-chromatography-coupled mass spectrometry (LC–MS). The note with it: 2 µM.
With `CCOC(=O)[C@H](CCc1ccccc1)N[C@@H](C)C(=O)N1CCC[C@H]1C(=O)O.O=C(O)/C=C\C(=O)O` [ENALAPRIL MALEATE], the “Bacterial Biotransformation” value is on record as “Compound NOT metabolized”.
Turning to `Fc1ccc([C@@H]2CCNC[C@H]2COc2ccc3c(c2)OCO3)cc1` [PAROXETINE], the “Bacterial Biotransformation” value is listed as “Compound metabolized”.

The next data set can be described thus: The drug is tested on Eubacterium ventriosum strain: ATCC27560 for biotransformation. The drug concentrations were measured before and after a 12-h incubation by liquid-chromatography-coupled mass spectrometry (LC–MS). The note with it: 2 µM. Format: ADME. Details: dose 2 uM, timepoint 0 vs 12 hours.
For `CCOC(=O)[C@H](CCc1ccccc1)N[C@@H](C)C(=O)N1CCC[C@H]1C(=O)O.O=C(O)/C=C\C(=O)O` [ENALAPRIL MALEATE], the “Bacterial Biotransformation” value is listed as “Compound NOT metabolized”.
As for `Fc1ccc([C@@H]2CCNC[C@H]2COc2ccc3c(c2)OCO3)cc1` [PAROXETINE], the “Bacterial Biotransformation” value is on record as “Compound NOT metabolized”.

For another data set the following is noted: limosilactobacillus reuteri cf48-3a, 12 h, 2 µM.
Description: The drug is tested on Lactobacillus reuteri CF48-3A strain: BEI HM-102 for biotransformation. The drug concentrations were measured before and after a 12-h incubation by liquid-chromatography-coupled mass spectrometry (LC–MS)
On to `CCOC(=O)[C@H](CCc1ccccc1)N[C@@H](C)C(=O)N1CCC[C@H]1C(=O)O.O=C(O)/C=C\C(=O)O` [ENALAPRIL MALEATE], for which the “Bacterial Biotransformation” value is on record as “Compound NOT metabolized”.
Still for that read-out and setting: the result for `Fc1ccc([C@@H]2CCNC[C@H]2COc2ccc3c(c2)OCO3)cc1` [PAROXETINE] reads “Compound NOT metabolized”.

A further data set is described as follows: The drug is tested on Collinsella aerofaciens strain: ATCC25986 for biotransformation. The drug concentrations were measured before and after a 12-h incubation by liquid-chromatography-coupled mass spectrometry (LC–MS). The note with it: 2 µM.
Take `CCOC(=O)[C@H](CCc1ccccc1)N[C@@H](C)C(=O)N1CCC[C@H]1C(=O)O.O=C(O)/C=C\C(=O)O` [ENALAPRIL MALEATE]: the “Bacterial Biotransformation” value is reported as “Compound NOT metabolized”.
For `Fc1ccc([C@@H]2CCNC[C@H]2COc2ccc3c(c2)OCO3)cc1` [PAROXETINE], the “Bacterial Biotransformation” value is recorded as “Compound NOT metabolized”.

For a further data set the following is noted: roseburia intestinalis, 12 h, 2 µM.
Description: The drug is tested on Roseburia intestinalis strain: L1-82 for biotransformation. The drug concentrations were measured before and after a 12-h incubation by liquid-chromatography-coupled mass spectrometry (LC–MS)
`CCOC(=O)[C@H](CCc1ccccc1)N[C@@H](C)C(=O)N1CCC[C@H]1C(=O)O.O=C(O)/C=C\C(=O)O` [ENALAPRIL MALEATE]: the “Bacterial Biotransformation” value is recorded as “Compound NOT metabolized”.
In the case of `Fc1ccc([C@@H]2CCNC[C@H]2COc2ccc3c(c2)OCO3)cc1` [PAROXETINE], the “Bacterial Biotransformation” value is given as “Compound NOT metabolized”.

The conditions of the next data set: bacteroides intestinalis, 12 h, 2 µM.
Description: The drug is tested on Bacteroides intestinalis strain: DSM17393 for biotransformation. The drug concentrations were measured before and after a 12-h incubation by liquid-chromatography-coupled mass spectrometry (LC–MS)
As to `CCOC(=O)[C@H](CCc1ccccc1)N[C@@H](C)C(=O)N1CCC[C@H]1C(=O)O.O=C(O)/C=C\C(=O)O` [ENALAPRIL MALEATE], the “Bacterial Biotransformation” value is reported as “Compound NOT metabolized”.
With `Fc1ccc([C@@H]2CCNC[C@H]2COc2ccc3c(c2)OCO3)cc1` [PAROXETINE], the “Bacterial Biotransformation” value was “Compound NOT metabolized”.

The conditions of a further data set: bacteroides thetaiotaomicron, 12 h, 2 µM.
Description: The drug is tested on Bacteroides thetaiotaomicron strain: 3731 for biotransformation. The drug concentrations were measured before and after a 12-h incubation by liquid-chromatography-coupled mass spectrometry (LC–MS)
With `CCOC(=O)[C@H](CCc1ccccc1)N[C@@H](C)C(=O)N1CCC[C@H]1C(=O)O.O=C(O)/C=C\C(=O)O` [ENALAPRIL MALEATE], the “Bacterial Biotransformation” value is given as “Compound NOT metabolized”.
With `Fc1ccc([C@@H]2CCNC[C@H]2COc2ccc3c(c2)OCO3)cc1` [PAROXETINE], the “Bacterial Biotransformation” value is listed as “Compound metabolized”.

For a further data set the following is noted: bacteroides fragilis, 12 h, 2 µM.
Description: The drug is tested on Bacteroides fragilis strain: NCTC 9343 for biotransformation. The drug concentrations were measured before and after a 12-h incubation by liquid-chromatography-coupled mass spectrometry (LC–MS)
In the case of `CCOC(=O)[C@H](CCc1ccccc1)N[C@@H](C)C(=O)N1CCC[C@H]1C(=O)O.O=C(O)/C=C\C(=O)O` [ENALAPRIL MALEATE], the “Bacterial Biotransformation” value is reported as “Compound NOT metabolized”.
On the same count and under the same terms, the result for `Fc1ccc([C@@H]2CCNC[C@H]2COc2ccc3c(c2)OCO3)cc1` [PAROXETINE] reads “Compound NOT metabolized”.

Another data set in a line: The drug is tested on Bacteroides sp. WH2 strain: WH2 for biotransformation. The drug concentrations were measured before and after a 12-h incubation by liquid-chromatography-coupled mass spectrometry (LC–MS). The note with it: bacteroides sp. wh2, 12 h, 2 µM.
On to `CCOC(=O)[C@H](CCc1ccccc1)N[C@@H](C)C(=O)N1CCC[C@H]1C(=O)O.O=C(O)/C=C\C(=O)O` [ENALAPRIL MALEATE], for which the “Bacterial Biotransformation” value is given as “Compound NOT metabolized”.
For the molecule `Fc1ccc([C@@H]2CCNC[C@H]2COc2ccc3c(c2)OCO3)cc1` [PAROXETINE], the “Bacterial Biotransformation” value is given as “Compound NOT metabolized”.
